PubChem BioAssay AID493062 (The Scripps Research Institute Molecular Screening Center, 2011)

What was measured:
2B4/MCL-1 = experiment: MCL-1-selective apoptosis induction in 2B4 cells – cell-based, fluorescence, assay provider data, selectivity assay for MCL1-BIM inhibitor project, late-stage follow-up (AID 493062); conditions: 2B4/MCL-1 caspase activation fluorescence
2B4/BCL-2 = experiment: as above; conditions: 2B4/MCL-1 caspase activation fluorescence

| EC50 (2B4/MCL-1) [µM] | EC50 (2B4/BCL-2) [µM] | Compound |
| --- | --- | --- |
| > 25 | > 25 | CC(=O)c1cccc(NC(=O)c2cc(-c3ccco3)nc3ccccc23)c1 |
| > 25 | > 25 | COc1ccc(NC(=O)c2cc(-c3ccco3)nc3ccccc23)cc1S(=O)(=O)N1CCOCC1 |
| > 25 | > 25 | Cc1ccc(-c2cc(C(=O)Nc3nccs3)c3ccccc3n2)o1 |
| > 25 | > 25 | COc1ccc(NC(=O)c2cc(-c3ccco3)nc3ccccc23)cn1 |
| > 25 | > 25 | Cc1ccc2nc(NC(=O)c3cc(-c4ccco4)nc4ccccc34)sc2c1 |
| > 25 | > 25 | Cc1csc(NC(=O)c2cc(-c3ccco3)nc3ccccc23)n1 |
| > 25 | > 25 | CN(CCOc1ccccc1)C(=O)c1cc(-c2ccco2)nc2ccccc12 |
| > 25 | > 25 | O=C(NCCCN1CCOCC1)c1cc(-c2ccco2)nc2ccccc12 |
| > 25 | > 25 | O=C(Nc1nncs1)c1cc(-c2ccco2)nc2ccccc12 |
| > 25 | > 25 | O=C(Nc1ccccc1F)c1cc(-c2ccco2)nc2ccccc12 |
| > 25 | > 25 | Cc1ccc(-c2cc(C(=O)Nc3cccnc3)c3ccccc3n2)o1 |
| > 25 | > 25 | O=C(Nc1ccc(F)cc1F)c1cc(-c2ccco2)nc2ccccc12 |
| > 25 | > 25 | CCCCCCNC(=O)c1cc(-c2ccco2)nc2ccccc12 |
| > 25 | > 25 | CN(C)C(=O)c1ccc(NC(=O)c2cc(-c3ccco3)nc3ccccc23)cc1 |
| > 25 | > 25 | CCN(CC)CCNC(=O)c1cc(-c2ccco2)nc2ccccc12 |
| > 25 | > 25 | NS(=O)(=O)c1ccc(CCNC(=O)c2cc(-c3ccco3)nc3ccccc23)cc1 |
| > 25 | > 25 | COc1cccc(NC(=O)c2cc(-c3ccco3)nc3ccccc23)c1 |
| > 25 | > 25 | O=C(c1cc(-c2ccco2)nc2ccccc12)N1CCN(c2ccc(F)cc2)CC1 |
| > 25 | > 25 | Cc1cccc(NC(=O)c2cc(-c3ccco3)nc3ccccc23)n1 |
| > 25 | > 25 | CCN1CCN(C(=O)c2cc(-c3ccco3)nc3ccccc23)CC1 |
| > 25 | > 25 | Cc1ccc(NC(=O)c2cc(-c3ccco3)nc3ccccc23)cc1S(=O)(=O)N1CCOCC1 |
| > 25 | > 25 | O=C(Nc1cccc(S(=O)(=O)NC2=NCCC2)c1)c1cc(-c2ccco2)nc2ccccc12 |
| > 25 | > 25 | CN(C)C(CNC(=O)c1cc(-c2ccco2)nc2ccccc12)c1ccccc1 (configuration not stated) |
| > 25 | > 25 | O=C(Nc1nccs1)c1cc(-c2ccco2)nc2ccccc12 |
| > 25 | > 25 | Cc1nnc(NC(=O)c2cc(-c3ccco3)nc3ccccc23)s1 |
| > 25 | > 25 | O=C(NCC1CCCO1)c1cc(-c2ccco2)nc2ccccc12 (configuration not stated) |
| > 25 | > 25 | O=C(c1cc(-c2ccco2)nc2ccccc12)N(Cc1nnc(-c2ccc(Cl)cc2)o1)C1CC1 |
| > 25 | > 25 | O=C(Nc1cccc(F)c1)c1cc(-c2ccco2)nc2ccccc12 |
| > 25 | > 25 | O=C(NC1CC1)c1cc(-c2ccco2)nc2ccccc12 |
| > 25 | > 25 | CN(CCOc1ccc(Cl)cc1)C(=O)c1cc(-c2ccco2)nc2ccccc12 |

The remaining lines, values behind:

| Compound | EC50 (2B4/MCL-1) [µM] | EC50 (2B4/BCL-2) [µM] |
| --- | --- | --- |
| COc1ccc(Cc2nnc(NC(=O)Cc3ccncc3)s2)cc1OC | > 25 | > 25 |
| COc1ccc(Cc2nnc(NC(=O)Cc3ccc(N(C)C)cc3)s2)cc1OC | > 25 | > 25 |
| COc1cccc(NC(=O)CN(C)C(=O)c2cc(-c3ccc(C)o3)nc3ccccc23)c1 | > 25 | > 25 |
| COc1ccc(Cc2nnc(NC(=O)c3cc(-c4ccco4)nc4ccc(Br)cc34)s2)cc1OC | 11 | 7.5 |
| COc1cccc(CC(=O)Nc2nnc(Cc3ccc(OC)c(OC)c3)s2)c1 | > 25 | > 25 |
| COc1ccc(Cc2nnc(NC(=O)Cc3ccc4ccccc4c3)s2)cc1OC | > 25 | > 25 |
| COc1ccccc1NC(=O)c1cc(-c2ccc(C)o2)nc2ccccc12 | > 25 | > 25 |
| COc1ccc(Cc2nnc(NC(=O)CCc3ccco3)s2)cc1OC | 0.8 | 1.5 |
| CCN(CC)C(=O)COc1ccc2c(-c3ccc(OC)cc3)cc(=O)oc2c1 | > 25 | > 25 |
| CCc1nnc(NC(=O)c2cc(-c3ccc(C)o3)nc3ccccc23)s1 | > 25 | > 25 |
| COCCN(C(=O)c1cc(-c2ccco2)nc2ccccc12)c1c(N)n(Cc2ccccc2)c(=O)[nH]c1=O | > 25 | > 25 |
| COc1ccc(NC(=O)c2cc(-c3ccc(C)o3)nc3ccccc23)c(OC)c1 | > 25 | > 25 |
| CCCN(C(=O)c1cc(-c2ccco2)nc2ccccc12)c1c(N)n(Cc2ccccc2)c(=O)[nH]c1=O | > 25 | > 25 |
| COc1ccc(Cc2nnc(NC(=O)Cc3cccs3)s2)cc1 | > 25 | > 25 |
| COc1ccc(Cc2nnc(NC(=O)Cc3ccsc3)s2)cc1OC | > 25 | > 25 |
| Cc1ccc(-c2cc(C(=O)N3CCN(c4ncccn4)CC3)c3cc(Br)ccc3n2)o1 | > 25 | > 25 |
| O=C(CCn1nnc2ccccc21)Nc1nnc(Cc2ccccc2)s1 | > 25 | > 25 |
| O=C(Cc1cccs1)Nc1nnc(Cc2ccccc2)s1 | > 25 | > 25 |
| CCCCn1c(N)c(N(CCOC)C(=O)c2cc(-c3ccco3)nc3ccccc23)c(=O)[nH]c1=O | > 25 | > 25 |

| Compound | EC50 (2B4/MCL-1) [µM] | EC50 (2B4/BCL-2) [µM] |
| --- | --- | --- |
| O=C(CCn1nnc2ccccc21)Nc1nnc(Cc2ccc(F)cc2)s1 | > 25 | > 25 |
| COc1ccc(Cc2nnc(NC(=O)Cc3ccc(Oc4ccccc4)cc3)s2)cc1OC | 4 | 3.6 |
| COc1ccc(Cc2nnc(NC(=O)Cc3cccc(Br)c3)s2)cc1OC | > 25 | > 25 |
| COc1ccc(Cc2nnc(NC(=O)Cc3ccccn3)s2)cc1OC | > 25 | > 25 |
| COCCCN(C(=O)c1cc(-c2ccco2)nc2ccccc12)c1c(N)n(Cc2ccccc2)c(=O)[nH]c1=O | > 25 | > 25 |
| CCCC(=O)Nc1nnc(Cc2ccccc2)s1 | > 25 | > 25 |
| COc1ccc(Cc2nnc(NC(=O)Cc3ccc4c(c3)OCO4)s2)cc1OC | > 25 | > 25 |
| Cc1ccc(-c2cc(C(=O)N3CCN(c4ccccc4O)CC3)c3ccccc3n2)o1 | > 25 | > 25 |
| CCCCN(C(=O)c1cc(-c2ccco2)nc2ccccc12)c1c(N)n(CCCC)c(=O)[nH]c1=O | > 25 | > 25 |
| Cc1ccc(-c2cc(C(=O)NCCCn3ccnc3)c3cc(Br)ccc3n2)o1 | > 25 | > 25 |
| COc1ccc(Cc2nnc(NC(=O)Cc3ccc(-c4ccccc4)cc3)s2)cc1OC | > 25 | > 25 |
| O=C(NC(=S)Nc1cccc(S(=O)(=O)NC2=NCCC2)c1)c1cc(-c2ccco2)nc2ccccc12 | > 25 | > 25 |
| CCN(CC)C(=O)COc1ccc2c(-c3ccccc3)cc(=O)oc2c1 | > 25 | > 25 |
| Cc1ccc(-c2cc(C(=O)N3CCOCC3)c3ccccc3n2)o1 | > 25 | > 25 |
| COc1ccc(Cc2nnc(NC(=O)Cc3cccs3)s2)cc1OC | > 25 | > 25 |
| COc1ccc(CC(=O)Nc2nnc(Cc3ccc(OC)c(OC)c3)s2)cc1 | > 25 | > 25 |
| Cc1ccnc(NC(=O)c2cc(-c3ccc(C)o3)nc3ccccc23)c1 | 40 | 40 |
| Cc1ccc(-c2cc(C(=O)NCCN3CCOCC3)c3ccccc3n2)o1 | > 25 | > 25 |
| COc1cccc(NC(=O)c2cc(-c3ccc(C)o3)nc3ccccc23)c1 | > 25 | > 25 |

| Compound | EC50 (2B4/MCL-1) [µM] | EC50 (2B4/BCL-2) [µM] |
| --- | --- | --- |
| Cc1ccc(-c2cc(C(=O)N(C)CC(=O)Nc3ccccc3Br)c3ccccc3n2)o1 | > 25 | > 25 |
| COc1ccc(Cc2nnc(NC(=O)Cc3csc4ccccc34)s2)cc1OC | > 25 | > 25 |
| COc1ccc(Cc2nnc(CC(=O)Nc3cccs3)s2)cc1 | > 25 | > 25 |
| COc1ccc(Cc2nnc(NC(=O)c3cc(-c4ccc(C)o4)nc4ccccc34)s2)cc1OC | 12 | 30 |
| CCCCn1c(N)c(N(CCC(C)C)C(=O)c2cc(-c3ccco3)nc3ccccc23)c(=O)[nH]c1=O | > 25 | > 25 |
| Cc1ccc(-c2cc(C(=O)N3CC(C)OC(C)C3)c3ccccc3n2)o1 (configuration not stated) | > 25 | > 25 |
| Cc1ccc(-c2cc(C(=O)NCC(c3ccccc3)N(C)C)c3ccccc3n2)o1 (configuration not stated) | > 25 | > 25 |
| COc1ccc(Cc2nnc(NC(=O)Cc3c[nH]c4ccccc34)s2)cc1OC | > 25 | > 25 |
| CCCCN(C(=O)c1cc(-c2ccco2)nc2ccccc12)c1c(N)n(CCC)c(=O)[nH]c1=O | > 25 | > 25 |
| COc1ccc(Cc2nnc(NC(=O)Cc3ccc(C)cc3)s2)cc1OC | > 25 | > 25 |
| COc1ccc(Cc2nnc(NC(=O)c3cc(-c4ccco4)nc4ccccc34)s2)cc1OC | > 25 | > 25 |
| Cc1ccc(-c2cc(C(=O)Nc3cccc(S(=O)(=O)N(C)C)c3)c3ccccc3n2)o1 | > 25 | > 25 |
| Cc1ccc(-c2cc(C(=O)Nc3ccccc3C(N)=O)c3ccccc3n2)o1 | > 25 | > 25 |
| CCOC(=O)c1cc(-c2ccco2)nc2c1c(C)nn2-c1cccc(Cl)c1 | > 25 | > 25 |
| COc1ccc(Cc2nnc(NC(=O)Cc3sc(=S)[nH]c3C)s2)cc1OC | > 25 | > 25 |
| COc1ccc(NC(=O)CN(C)C(=O)c2cc(-c3ccc(C)o3)nc3ccccc23)cc1 | > 25 | > 25 |
| COc1ccc(Cc2nnc(NC(=O)Cc3cc(F)cc(F)c3)s2)cc1OC | > 25 | > 25 |
| COc1ccccc1CC(=O)Nc1nnc(Cc2ccc(OC)c(OC)c2)s1 | > 25 | > 25 |
